The values below come from patent US20220017833A1, “Methods and Compositions for Scavenging Sulfides from Hydrocarbon Fluids and Aqueous Streams” (Nexgen Oilfield Chemicals, LLC, priority 2019, published 2022).

The conditions of data set [1]: octanol-water partition logarithm; source not stated; cited from earlier work.
Data set [2] can be described thus: Solution Homogeneity Test. The class given is physicochemical. The settings on record: Table 6, GID, water and alcohols, % composition. An excerpt:
In one aspect, as two-phase reaction products are problematic, scavenger system homogeneity is desired. The two phases could be emulsified or otherwise finely dispersed, but in practice, even fine, seemingly stable dispersions eventually separate or stratify in extended storage or critical use and are not robust enough for practical use. They are not allowed, for example, to be fed through capillaries for fear of plugging them. In this pass/fail test, a sample is held up for visual inspection in a backlit clear vial. A clear, single-phase, homogeneous solution is a pass. Anything else is a fail.

A short description of data set [3]: Short Reaction Time Capacity Test. The note with it: for contribution to the BT capacity (coefficient of best fit equation) / contribution to the FD capacity (coefficient of best fit equation): Short Reaction Time Capacity Test, Table 2 compositions. The source says:
(§1) Referring now to FIG. 1, therein is schematically depicted a sulfide scavenger testing system 100 comprising a gas source 2, a flow regulator 4, gas treatment vessel 6, and a sulfide measurement device 8. In one testing embodiment, gas (not shown) is flowed from gas source 2 via gas feed piping 10 into flow regulator 4, which regulates gas flow to gas treatment vessel 6 via regulated gas feed piping 12. The regulated gas flows into gas treatment vessel 6 via a bottom inlet 14 thereof, where it comes into contact with a volume of liquid 16 comprising a sulfide scavenger system (not separately labeled). The gas, having been treated by the liquid, flows out of a top end 18 of gas treatment vessel 6 and flows into sulfide measurement device 8 via treated gas outlet piping 20.
In one embodiment, gas flow from the flow regulator 4 is controlled such that the gas is flowed into the gas treatment vessel 6 at a flow rate of 100 mL/min. up to 500 mL/min. In one embodiment, a gas sparging device, such as a fine pore frit (not shown), is utilized to better distribute the gas into the scavenger liquid. In one embodiment, the gas treatment vessel 6 contains about 20 g of a liquid H2S scavenger, such as one or more diaminols/diaminacetals in a chemical system as described above. In one aspect, to the extent possible, H2S and/or CO2 are scavenged from the gas by the scavenger and the treated (“sweet”) gas exits top end 18 of treatment vessel 6. In one embodiment, sulfide measurement device 8 monitors the concentration of H2S leaving treatment vessel 6. in the gas phase. In other embodiments (not shown), a CO2 measurement device may be similarly employed to monitor the concentration of CO2 leaving treatment vessel 6 in the gas phase.
(§2) In one embodiment, gas is flowed through sulfide scavenger testing system 100 until the outlet H2S concentration reaches a 4,000 ppm target, at which point the test is concluded. This relative time duration before the target is reached is used to compare H2S scavenger capacity given the kinetics of each sulfide scavenger system. The longer the duration, the better the capacity.
(§3) The fine bubbles produced rise slowly, providing plenty of time, plenty of surface area, and a short path through which the H2S must diffuse to the scavenger in the liquid 16. Detector 8 on the outlet line 20 is used to measure H2S concentration in the exiting gas. The times to first detection (FD), at a threshold of 15 ppm, and to complete breakthrough (BT), at the detector saturation of 4000 ppm (0.4%), are recorded. This test is designed to measure the effective scavenging capacity in applications with long contact times.
This test is the same as the Long Reaction Time Capacity Test, but without the gas sparging device, so as to produce larger bubbles, and at a higher feed rate of 200 mL/min, after the first 8 minutes at 100 mL/min. The larger bubbles rise quickly through the liquid 16, providing little time, little surface area, and a long path through which the H2S must diffuse to the scavenger in the liquid. This test is designed to measure the effective scavenging capacity in applications with short contact times. It is far more reaction rate dependent than the Long Reaction Time Capacity and so is a more critical and differentiating test.
With triazine, one H2S reacts twice with the same molecule of triazine, replacing one amine, so the rate is “first order”, meaning proportional to the concentration of triazine.

Data set [4] can be described thus: Long Reaction Time Capacity Test.
Source text: as §1
In one embodiment, the gas contained in gas source 2 consists substantially of about 15% H2S, and about 3% CO2, with the remainder being Methane. In one embodiment, gas flow from the flow regulator 4 is controlled such that the gas is flowed into the gas treatment vessel 6 at a flow rate of 100 mL/min. up to 500 mL/min. In one embodiment, a gas sparging device, such as a fine pore frit (not shown), is utilized to better distribute the gas into the scavenger liquid. In one embodiment, the gas treatment vessel 6 contains about 20 g of a liquid H2S scavenger, such as one or more diaminols/diaminacetals in a chemical system as described above. In one aspect, to the extent possible, H2S and/or CO2 are scavenged from the gas by the scavenger and the treated (“sweet”) gas exits top end 18 of treatment vessel 6. In one embodiment, sulfide measurement device 8 monitors the concentration of H2S leaving treatment vessel 6. in the gas phase. In other embodiments (not shown), a CO2 measurement device may be similarly employed to monitor the concentration of CO2 leaving treatment vessel 6 in the gas phase.
as §2
as §3, with “In this test, methane containing 15% H2S and 3% CO2 by weight is sparged via a fine pore frit (not shown) at 100 mL/min through a column of 20 g of scavenger solution (See FIG. 1). The fine” for “The fine”
Note that the true total capacity of a scavenger with infinite time to react is simply equal to the stoichiometry of the reaction—the moles of H2S consumable per mole of scavenging molecule, which can be calculated. This Long Reaction Time Capacity measurement falls short of that ultimate stoichiometric capacity and so is still reaction rate dependent, just less so than the Short Reaction Time Capacity Test.

Where [5] appears, read: 20 g test, Eq/test Triazine 0.068, GIDAc 0.157, GIDA 0.076 (7.50 g MeOH, 2.50 g BuOH).
Setting [6] is: 20 g test, Triazine 7.50 g + 12.50 g water, GIDAc 11.00 g as GID, 6.00 g MeOH, 3.00 g BuOH, GIDA 6.68 g as GID, 3.32 g water, 7.50 g MeOH, 2.50 g BuOH.
[7] abbreviates: 20 g test, Eq/test Triazine 0.068, GIDAc 0.185, GIDA 0.076.
Where [8] appears, read: 20 g test, Triazine 7.50 g + 12.50 g water, GIDAc 13.00 g as GID + 7.00 g MeOH, GIDA 6.68 g as GID, 3.32 g water, 8.00 g MeOH, 2.00 g BuOH.

For the molecule `OCCO` [EG, Ethylene Glycol], the LogP in data set [1] is recorded as −1.7. Also, the “Solution Homogeneity” value is “Fail” in data set [2] and “do not work” in data set [2] (listed as Ethylene glycol).
Consider `CCCCCCCCO` [n-C8OH, n-Octanol], for which the LogP in data set [1] is reported as 3.0.
In the case of `CCCCCCCO` [n-C7OH, n-Heptanol], the log partition coefficient (LogP) in data set [1] is 2.5.
For the molecule `OCCN1CN(CCO)CN(CCO)C1` [Triazine, reference compound], in data set [3] (setting [5]), the “Min/Eq BT” value was 380 Min/Eq and the “Min/Eq FD” value was 365 Min/Eq. Besides, in data set [3] (setting [6]), the “Min to BT” value worked out at 26 min and the “Min to FD” value is 25 min. The “molar capacity at short reaction times (comparison, accounting for molar concentration)” value in data set [3] (Graph 1 (FIG. 3)) is on record as “lower molar capacity at short reaction times”. Also, in data set [4] (setting [7]), the “Min/Eq BT” value turned out to be 994 Min/Eq and the “Min/Eq FD” value was found to be 965 Min/Eq. For the same molecule, in data set [4] (setting [8]), the “Min to BT” value amounted to 68 min and the “Min to FD” value was found to be 66 min. For the same molecule, the “molar capacity at long reaction times (comparison, accounting for molar concentration)” value in data set [4] (Graph 1 (FIG. 3)) is recorded as “greater molar capacity than GIDAc at long reaction times”.
For Hexylene Glycol [HG], in data set [1], the LogP is given as 0.0.
As to `CCCCC(CC)CO` (stereo not shown) [2EHOH, 2-Ethylhexanol], in data set [1], the LogP is recorded as 2.8.
Take `CC(O)CO` (stereo not shown) [PG, Propylene Glycol]: the LogP in data set [1] was −1.3.
Regarding `CO` [MeOH, Methanol], the LogP in data set [1] is −0.7.
Regarding `CC(C)N=CC=NC(C)C` [GID, N,N′-di(propan-2-yl)ethane-1,2-diimine], in data set [3], the “contribution to the BT capacity (coefficient of best fit equation)” value is 102 minutes per equivalent and the “contribution to the FD capacity (coefficient of best fit equation)” value was 92 minutes per equivalent. Besides, in data set [1], the lipophilicity (LogP) is reported as 2.3.
`OCCOCCO` [DEG, Diethylene Glycol]: the LogP in data set [1] is −1.5. The entries for the “Solution Homogeneity” value in data set [2] and in data set [2] (listed as diethylene glycol) were “Fail” and “do not work”, respectively.
For `O` [H2O, Water], the lipophilicity (LogP) in data set [1] is −1.4.
On to `CC(=O)CC(C)C` [MIBK, methyl isobutyl ketone], for which, in data set [3], the “contribution to the BT capacity (coefficient of best fit equation)” value came to 601 minutes per equivalent and the “contribution to the FD capacity (coefficient of best fit equation)” value worked out at 515 minutes per equivalent.

As a reminder, the LogP is the decadic logarithm of the partition coefficient of the neutral form, usually between octanol and water.
